Assays:
common blackjack (BIDPI) = experiment: Test 11 field trial, preemergence; assay type: in vivo, Bidens pilosa; design: scale not given here; settings: atrazine 1500 or metolachlor 2500 g a.i./ha alone
Text: (§1) Corn seeds (hybrid ‘Pioneer 3041’) were planted in mid spring season, 5 cm deep in a clay soil having 2.6% organic matter and a pH of 5.6. Plots were 8 m long by 1.5 m wide with rows spaced 80 cm apart. Seeds were spaced 15 cm apart within the rows. The field was managed using conventional tillage practices. […] Treatments consisted of Compound 2 or
(§2) Goosegrass was not evaluated 16 or 91 days after application.

alexandergrass (BRAPL) = experiment: Test 11 field trial, preemergence; assay type: in vivo, Brachiaria plantaginea; design: scale not given here; settings: atrazine 1500 or metolachlor 2500 g a.i./ha alone
Text: as §1, §2

southern sandbur (CCHEC) = experiment: Test 11 field trial, preemergence; assay type: in vivo, Cenchrus echinatus; design: scale not given here; settings: atrazine 1500 or metolachlor 2500 g a.i./ha alone
Text: as §1, §2

arrowleaf sida (SIDRH) = experiment: Test 11 field trial, preemergence; assay type: in vivo, Sida rhombifolia
Text: as §1, §2

flint corn (ZEAMI) = experiment: Test 11 field trial, preemergence; assay type: in vivo, Zea mays L. ssp. indurata; design: scale not given here; settings: atrazine 1500 or metolachlor 2500 g a.i./ha alone
Text: as §1, §2

Surinam grass (BRADC) = experiment: Test 11 field trial, preemergence; assay type: in vivo, Brachiaria decumbens; design: scale not given here; settings: atrazine 1500 or metolachlor 2500 g a.i./ha alone
Text: as §1, §2

[1] = tested on: Brazilian crabgrass (DIGHO); experiment: Test 11 field trial, preemergence; assay type: in vivo, Digitaria horizontalis; design: scale not given here; settings: atrazine 1500 or metolachlor 2500 g a.i./ha alone
Text: as §1, §2

goosegrass (ELEIN) = experiment: Test 11 field trial, preemergence; assay type: in vivo, Eleusine indica
Text: as §1, §2

[2] = tested on: Ipomoea grandiflora (IPOGF); experiment: Test 11 field trial, preemergence; assay type: in vivo
Text: as §1, §2

[3] = tested on: tropical spiderwort (COMBE); experiment: Test 11 field trial, preemergence; assay type: in vivo, Commelina benghalensis; design: scale not given here; settings: atrazine 1500 or metolachlor 2500 g a.i./ha alone
Text: as §1, §2

barley (HORVX) = experiment: Test 30 growth chamber, postemergence; assay type: in vivo, Hordeum vulgare
Description: (§3) A growth chamber test was conducted to evaluate the effects on the plant species wheat (TRZAW, Triticum aestivum L.) and barley (HORVX, Hordeum vulgare L.) with mixtures of Compound 1 and Compound 2 with glycerol. Wheat and barley seeds were planted in a sandy loam soil having 0.9% organic matter and a pH of 6.3. […] Wheat and barley plants were treated postemergence at the two leaf growth stage for Compound 1 and at the three leaf growth stage for Compound 2. Each treatment was replicated one time. […] Plants were watered as needed. […] Colby's Equation was used to determine herbicidal effects expected from the mixtures.

wheat (TRZAW) = experiment: Test 30 growth chamber, postemergence; assay type: in vivo, Triticum aestivum
Description: as §3

[4] = 16 DAA, atrazine 1500 or metolachlor 2500 g a.i./ha alone
[5] = 30 DAA, atrazine 1500 or metolachlor 2500 g a.i./ha alone
[6] = 44 DAA, 2500 g a.i./ha, scale 0 to 100
[7] = 62 DAA, 2500 g a.i./ha, scale 0 to 100
[8] = 91 DAA, 2500 g a.i./ha, scale 0 to 100
[9] = 17 DAA, Glycerol 7100 g a.i./ha
[10] = 17 DAA, Glycerol 14200 g a.i./ha
[11] = 18 DAA, Glycerol 7100 g a.i./ha
[12] = 18 DAA, Glycerol 14200 g a.i./ha

CCc1cccc(C)c1N(C(=O)CCl)C(C)COC (centres unmarked) [Metolachlor]
BIDPI Obs (common blackjack (BIDPI); 16 DAA): 40 | BIDPI Obs (common blackjack (BIDPI); 30 DAA): 40 | BIDPI Obs (common blackjack (BIDPI); 44 DAA): 40 | BIDPI Obs (common blackjack (BIDPI); 62 DAA): 0 | BIDPI Obs (common blackjack (BIDPI); 91 DAA): 0 | BRAPL Obs (alexandergrass (BRAPL); 16 DAA): 97 | BRAPL Obs (alexandergrass (BRAPL); 30 DAA): 90 | BRAPL Obs (alexandergrass (BRAPL); 44 DAA): 90 | BRAPL Obs (alexandergrass (BRAPL); 62 DAA): 60 | BRAPL Obs (alexandergrass (BRAPL); 91 DAA): 40 | CCHEC Obs (southern sandbur (CCHEC); 16 DAA): 95 | CCHEC Obs (southern sandbur (CCHEC); 30 DAA): 97 | CCHEC Obs (southern sandbur (CCHEC); 44 DAA): 97 | CCHEC Obs (southern sandbur (CCHEC); 62 DAA): 80 | CCHEC Obs (southern sandbur (CCHEC); 91 DAA): 100 | SIDRH Obs (arrowleaf sida (SIDRH); [4]): 90 | SIDRH Obs (arrowleaf sida (SIDRH); [5]): 80 | SIDRH Obs (arrowleaf sida (SIDRH); [6]): 60 | SIDRH Obs (arrowleaf sida (SIDRH); [7]): 70 | SIDRH Obs (arrowleaf sida (SIDRH); [8]): 90 | ZEAMI Obs (flint corn (ZEAMI); 16 DAA): 30 | ZEAMI Obs (flint corn (ZEAMI); 30 DAA): 20 | ZEAMI Obs (flint corn (ZEAMI); 44 DAA): 25 | ZEAMI Obs (flint corn (ZEAMI); 62 DAA): 20 | ZEAMI Obs (flint corn (ZEAMI); 91 DAA): 20 | BRADC Obs (Surinam grass (BRADC); 16 DAA): 97 | BRADC Obs (Surinam grass (BRADC); 30 DAA): 95 | BRADC Obs (Surinam grass (BRADC); 44 DAA): 90 | BRADC Obs (Surinam grass (BRADC); 62 DAA): 60 | BRADC Obs (Surinam grass (BRADC); 91 DAA): 40 | DIGHO Obs ([1]; 16 DAA): 100 | DIGHO Obs ([1]; 30 DAA): 100 | DIGHO Obs ([1]; 44 DAA): 100 | DIGHO Obs ([1]; 62 DAA): 100 | DIGHO Obs ([1]; 91 DAA): 95 | ELEIN Obs (goosegrass (ELEIN); [5]): 100 | ELEIN Obs (goosegrass (ELEIN); [6]): 100 | ELEIN Obs (goosegrass (ELEIN); [7]): 100 | IPOGF Obs [2, 4]: 70 | IPOGF Obs [2, 5]: 60 | IPOGF Obs [2, 6]: 40 | IPOGF Obs [2, 7]: 40 | IPOGF Obs [2, 8]: 40 | COMBE Obs ([3]; 16 DAA): 100 | COMBE Obs ([3]; 30 DAA): 100 | COMBE Obs ([3]; 44 DAA): 100 | COMBE Obs ([3]; 62 DAA): 100 | COMBE Obs ([3]; 91 DAA): 100

OCC(O)CO [Glycerol]
HORVX Obs (barley (HORVX); [9]): 0% | HORVX Obs (barley (HORVX); [10]): 0% | HORVX Obs (barley (HORVX); [11]): 0% | HORVX Obs (barley (HORVX); [12]): 0% | TRZAW Obs (wheat (TRZAW); [9]): 0% | TRZAW Obs (wheat (TRZAW); [10]): 0% | TRZAW Obs (wheat (TRZAW); [11]): 0% | TRZAW Obs (wheat (TRZAW); [12]): 0%

From patent publication US20100285959A1, “HERBICIDAL MIXTURES” (priority 2006, published 2010)
